Assay results published in US7727949B2, “Cleaning agent for thermostatic chambers” (Wako Pure Chemical Industries, Ltd., priority 2005, dated 2010).

Tests used:
Assay type in all cases: cell-based
[1] = test system: Aspergillus niger (NBRC6341); assay: Study of antimicrobial activity (MIC, agar plate medium)
Description: (§1) In a sterilized petri dish having a diameter of 90 mm, an aqueous solution which was obtained by diluting each of agents with distilled water such that a concentration of the agent become each predetermined concentrations when the solution is prepared to a total volume of 20 mL, and then sterilized water was added into the petri dish such that a total volume of sterilized water and the agent aqueous solution become 2 mL. Further, 18 mL of nutrient agar medium, which was sterilized with high pressure steam and preserved at 50° C.±2° C., was added into the petri dish, and it was solidified to obtain an agar plate medium.
(§2) The individual test microorganism, which was preliminarily cultured in bouillon medium in advance until 1×10^8 microorganisms/mL, was diluted with sterilized physiological saline for 100 times (to 1×10^6 microorganisms/mL). Next, prepared solution of the test microorganism was smeared with a platinum loop on the surface of the agar plate medium prepared in (2), and the medium was cultured at 35° C.±2° C., for 24 hours.
(§3) After the cultivation, confirming the presence or not of growth of the microorganism on the surface of the medium was conducted, a minimum concentration of the agent, where growth of the microorganisms cannot be recognized, was determined as the minimum inhibitory concentration (MIC, μg/mL) of the agent.

[2] = test system: Bacillus subtilis (NBRC13719); assay: as above
Description: as §1, §2, §3

[3] = test system: Chaetomium globosum (NBRC6347); assay: as above
Description: as §1, §2, §3

[4] = test system: Cladosporium cladosporioides (NBRC6348); assay: as above
Description: as §1, §2, §3

[5] = test system: Escherichia coli (NBRC3972); assay: as above
Description: as §1, §2, §3

[6] = test system: Penicillium citrinum (NBRC6352); assay: as above
Description: as §1, §2, §3

[7] = test system: Pseudonas aeruginosa (NBRC12689); assay: as above
Description: as §1, §2, §3

[8] = test system: Staphylococcus aureus (NBRC12732); assay: as above
Description: as §1, §2, §3

[9] = test system: Trichoderma viride (NBRC31831); assay: as above
Description: as §1, §2, §3

[10] = test system: Bacillus subtilis (NBRC13719); assay: Study of germicidal activity of agents in the presence of proteins; design: key: a case where growth of the microorganism on the surface of the medium was recognized is shown by +; a case where growth of the microorganism on the surface of the medium was not recognized is shown by −; conditions: agent 50 μg/mL
Description: (§4) Didecyldimethylammonium adipate (DDAA), N-bis(3-aminopropyl)dodecylamine (TAA) and benzalkonium chloride were respectively prepared such that a concentration thereof is 1 w/w %.
(§5) GOT solution: GOT Substrate-Enzyme solution and GOT•L2α-KG solution which were components of L type Wako GOT•J2 kit (produced by Wako Pure Chemical Industries, Ltd.) were prepared with distilled water so as to become a 0.1 w/w % aqueous solution.
(§6) GPT solution: GOT Substrate-Enzyme solution and GOT•L2α-KG solution which were components of L type Wako GPT•J2 kit (produced by Wako Pure Chemical Industries, Ltd.) were prepared with distilled water so as to become a 0.1 w/w % aqueous solution.
(§7) Serum: Control Serum II Wako (produced by Wako Pure Chemical Industries, Ltd.) was prepared with distilled water so as to become a 0.1 w/w % aqueous solution.
(§8) i) The individual test microorganism, which was preliminarily cultured in bouillon medium in advance until 1×10^8 microorganisms/mL, were diluted with sterilized physiological saline for 100 times (to 1×10^6 microorganisms/mL) to obtain a solution of test microorganisms. ii) Into a 20 mL test tube made of glass which was preliminarily sterilized by dry-heat sterilization, the agent aqueous solution, the reagent solution and the solution of test microorganisms as prepared in the above described i) were added such that a final concentration of the agent become 50 μg/mL, a final concentration of the reagent become 100 μg/mL, and the number of test microorganisms become 1×10^5 microorganisms/mL, respectively, when a total volume thereof is prepared to be 10 mL. And then, the tube was sufficiently stirred. iii) After a lapse of predetermined times (5 min, 10 min, and 15 min), the solution as obtained in the above described ii) was smeared with a platinum loop on the surface of the nutrient agar plate medium preliminarily having been prepared, and the medium was cultured at 35° C.±2° C. for 24 hours. iv) After the cultivation, confirming the presence or not of the growth of the microorganisms on the surface of the medium was conducted. (3) Result
(§9) In Table 3, a case where growth of the microorganism on the surface of the medium was recognized is shown by +, and a case where growth of the microorganism on the surface of the medium was not recognized is shown by −, respectively.

[11] = test system: Escherichia coli (NBRC3972); assay: as above; design: key: a case where growth of the microorganism on the surface of the medium was recognized is shown by +; a case where growth of the microorganism on the surface of the medium was not recognized is shown by −; conditions: agent 50 μg/mL
Description: as §4, §5, §6, §7, §8, §9

Compound	Minimum Inhibitory Concentration A.n [1]	Minimum Inhibitory Concentration B.s [2] [µg/mL]	Minimum Inhibitory Concentration C.g [3] [µg/mL]	Minimum Inhibitory Concentration Cl.cl [4] [µg/mL]	Minimum Inhibitory Concentration E.c [5] [µg/mL]	Minimum Inhibitory Concentration P.c [6] [µg/mL]	Minimum Inhibitory Concentration P.a [7] [µg/mL]	Minimum Inhibitory Concentration S.a [8] [µg/mL]	Minimum Inhibitory Concentration T.v [9] [µg/mL]	growth of the microorganism B.s ([10]; GOT, 5 min)	growth of the microorganism B.s ([10]; GOT, 10 min)	growth of the microorganism B.s ([10]; GOT, 15 min)	growth of the microorganism B.s ([10]; GPT, 5 min)	growth of the microorganism B.s ([10]; GPT, 10 min)	growth of the microorganism B.s ([10]; GPT, 15 min)	growth of the microorganism B.s ([10]; Serum, 5 min)	growth of the microorganism B.s ([10]; Serum, 10 min)	growth of the microorganism B.s ([10]; Serum, 15 min)	growth of the microorganism E.c ([11]; GOT, 5 min)	growth of the microorganism E.c ([11]; GOT, 10 min)	also measured
CCCCCCCCCCCCN(CCCN)CCCN [TAA, N-bis(3-aminopropyl)dodecylamine]	200 µg/mL	3.125	100	25	50	200	100	3.125	50	+	+	+	+	+	+	+	+	+	+	+	growth of the microorganism E.c ([11]; GOT, 15 min): +; growth of the microorganism E.c ([11]; GPT, 5 min): +; growth of the microorganism E.c ([11]; GPT, 10 min): +; growth of the microorganism E.c ([11]; GPT, 15 min): +; growth of the microorganism E.c ([11]; Serum, 5 min): +; growth of the microorganism E.c ([11]; Serum, 10 min): +; growth of the microorganism E.c ([11]; Serum, 15 min): +
Didecyldimethylammonium adipate [DDAA]	400 µg/mL	<1.563	200	100	100	400	400	<1.563	200	+	+	+	+	+	+	+	+	+	+	+	growth of the microorganism E.c ([11]; GOT, 15 min): +; growth of the microorganism E.c ([11]; GPT, 5 min): +; growth of the microorganism E.c ([11]; GPT, 10 min): +; growth of the microorganism E.c ([11]; GPT, 15 min): +; growth of the microorganism E.c ([11]; Serum, 5 min): +; growth of the microorganism E.c ([11]; Serum, 10 min): +; growth of the microorganism E.c ([11]; Serum, 15 min): +
benzalkonium chloride [BC, reference compound]	1,600 μg/mL	<1.563	400	200	100	800	800	6.25	400	+	+	+	+	+	+	+	+	+	+	+	growth of the microorganism E.c ([11]; GOT, 15 min): +; growth of the microorganism E.c ([11]; GPT, 5 min): +; growth of the microorganism E.c ([11]; GPT, 10 min): +; growth of the microorganism E.c ([11]; GPT, 15 min): +; growth of the microorganism E.c ([11]; Serum, 5 min): +; growth of the microorganism E.c ([11]; Serum, 10 min): +; growth of the microorganism E.c ([11]; Serum, 15 min): +
